Results published in patent publication US20240336615A1, “CYCLOPROPYL-(HETERO)ARYL-SUBSTITUTED ETHYL-SULFOXIME-PYRIDINE DERIVATIVES” (Boehringer Ingelheim Vetmedica GmbH, priority 2023, published 2024).

Experiments:
[1] = tested on: A. aegypti L1 larvae; assay: Activity against larvae of Aedes aegypti (Example 3); settings: 48 h at 27° C., read-out: EC50 (percentage of mortality, larvae)
Experimental: Eight A. aegypti L1 larvae in a total volume of 64 μL water are added to 384-well microplates containing compounds of formulae (I), (Ia) and/or (Ib) formulated in 100% DMSO. The plates are incubated for 48 h at 27° C. Individual well images are acquired and analyzed using a pipeline to quantitatively assess the amount of larvae biomass accumulating at the bottom of the well. The efficacy of a compound at a given dose is expressed as “percentage of mortality” and determined by comparison to average biomass descriptors of positive and negative control wells containing 1.0 μM Fipronil or DMSO only, respectively. Dose response assay are conducted to determine an EC50 value.

[2] = tested on: adult Ctenocephalides felis fleas; assay: Contact activity against adult Ctenocephalides felis (Example 4); settings: adult C. felis, coated pipe cleaner in vial, 72 hours post-treatment, read-out: EC50 (contact activity, percentage mortality)
Experimental: Compounds of formulae (I), (Ia) and/or (Ib) dissolved in 100% DMSO are diluted in acetone to a desired concentration. The resulting formulation is used to coat the fibers of a 0.5-inch-long piece of pipe cleaner placed in a glass scintillation vial. The vial is capped with a rubber gasket and filter paper insert. After the acetone has evaporated, ten adult Ctenocephalides felis fleas are added to each vial. The vials are then incubated at 22° C., 80% relative humidity, and 12 hours of light/12 hours of dark until a visual evaluation for mortality is performed at 72 hours post-treatment. Compound efficacy at a given dose is expressed as percentage mortality and adjusted to remove background mortality observed in control vials containing DMSO only. A dose response series of treated vials is implemented to determine EC50 values.

[3] = tested on: adult R. sanguineus ticks; assay: Contact activity against adult Rhipicephalus sanguineus (Example 5); settings: coated vials, 48 hours post-treatment, read-out: EC50 (contact activity, percentage mortality)
Experimental: Compounds of formulae (I), (Ia) and/or (Ib) formulated in 100% DMSO are diluted in a solution containing acetone and Triton X-100 (0.02%). The resulting formulation is used to coat the inner walls of glass scintillation vials and the filter paper covering the cap of the vial. Once dried, ten adult R. sanguineus ticks are added to the vials. The vials are incubated at 24° C., 95% relative humidity, and 12 hours of light/12 hours of dark until evaluation. Ticks are visually evaluated for mortality at 48 hours post-treatment. Compound efficacy at a given dose is expressed as percentage mortality. A dose response series is implemented to determine EC50 values.

[4] = tested on: adult C. felis fleas; assay: Ingestion activity against adult Ctenocephalides felis, membrane feeding, motility (Example 6); settings: 48 h, bovine blood via artificial membrane, 48h post treatment, read-out: EC50 (ingestion activity, % motility reduction)
Experimental: Compounds of formulae (I), (Ia) and/or (Ib) dissolved in 100% DMSO are added to bovine blood and offered via an artificial membrane feeding system to adult C. felis fleas. The motility of fleas is then visually inspected 48h post treatment. Efficacy is expressed in % motility reduction compared to controls containing blood treated with DMSO only. A dose response series is implemented to determine EC50 values.

[5] = tested on: adult C. felis fleas; assay: Ingestion activity against adult Ctenocephalides felis, membrane feeding, alternative method (Examples 7 and 13); settings: Ctenocephalides felis
Experimental: Selected compounds of formula (I), (Ia) and (Ib) and compound “125” of WO 2021/033141 dissolved in 100% DMSO are diluted in bovine blood with sodium heparin anti-coagulant. The resulting formulation is offered via an artificial membrane feeding system to approximately 15 adult C. felis fleas previously dispensed into 24-well plates. The plates are then incubated in a double-chambered device. Visual evaluation for mortality is performed at 48 hours post-treatment. Compound efficacy at a given dose is expressed as percentage mortality and determined by normalization to positive and negative controls. A dose response series is implemented to determine EC50 values.
Compounds of formulae (I), (Ia) and/or (Ib) dissolved in 100% DMSO are diluted in bovine blood with sodium heparin anti-coagulant. The resulting formulation is offered via an artificial membrane feeding system to approximately 15 adult C. felis fleas previously dispensed into 24-well plates. The plates are then incubated in a double-chambered device. Visual evaluation for mortality is performed at 48 hours post-treatment. Compound efficacy at a given dose is expressed as percentage mortality and determined by normalization to positive and negative controls. A dose response series is implemented to determine EC50 values.

[6] = tested on: Spodoptera litura; assay: Insecticidal test on Spodoptera litura (Example 14); format: in vivo; settings: foliar, 192 h, 500 ppm, cabbage leaf dip, 2nd-instar larvae, 8 days after inoculation, read-out: activity level (corrected mortality rate)
Experimental: The compounds of formula (I), (Ia) and/or (Ib) of the present invention or salts thereof are separately dispersed in water and diluted to 500 ppm and 50 ppm. Cabbage leaves are dipped in the dispersion for about 30 seconds. After air dried, the leaves are placed in a plastic Petri dish with a diameter of 9 cm and inoculated with ten 2nd-instar larvae of Spodoptera litura, after which the dish is closed and then allowed to stand in a room at 25° C. 8 days after the inoculation, the numbers of the dead and alive insects are counted. The corrected mortality rate is calculated according to the following formula and the insecticidal activity is evaluated according to the following criteria.
[formula] [formula] • A: the corrected mortality rate is 100% • B: the corrected mortality rate is 90 to 99% • C: the corrected mortality rate is 80 to 89% • D: the corrected mortality rate is 50 to 79%

[7] = tested on: Plutella xylostella; assay: Insecticidal test on Plutella xylostella (Example 15); format: in vivo; settings: 144 h, 500 ppm, Chinese cabbage seedling dip, 6 days after dip treatment, read-out: activity level (corrected mortality rate)
Experimental: The compounds of formula (I), (Ia) and/or (Ib) of the present invention or salts thereof are separately dispersed in water and diluted to 500 ppm and 50 ppm. Ten adults of Plutella xylostella are released onto Chinese cabbage seedlings and allowed to lay eggs thereon. 2 days after the release of the adults, the seedling is dipped in the dispersion for about 30 seconds. After air dried, the seedling is kept in a room at 25° C. 6 days after the dip treatment, the numbers of the dead and alive insects are counted. The corrected mortality rate is calculated according to the following formula and the insecticidal activity is evaluated according to the following criteria.

[8] = tested on: Laodelphax striatellus; assay: Insecticidal test on Laodelphax striatellus (Example 16); format: in vivo; settings: 192 h, 500 ppm, rice seedling dip, 3rd-instar nymphs, 8 days after inoculation, read-out: activity level (corrected mortality rate)
Experimental: The compounds of formula (I), (Ia) and/or (Ib) of the present invention or salts thereof are separately dispersed in water and diluted to 500 ppm and 50 ppm. Rice plant seedlings are dipped in the dispersion for about 30 seconds. After air dried, the seedlings are put into a separate glass test tube and inoculated with ten 3rd-instar nymphs of Laodelphax striatellus and then the glass test tube is kept in a room at 25° C. 8 days after the inoculation, the numbers of the dead and alive insects are counted. The corrected mortality rate is calculated according to the following formula and the insecticidal activity is evaluated according to the following criteria.

[9] = tested on: Myzus persicae; assay: Insecticidal test on Myzus persicae (Example 17); format: in vivo; settings: 144 h, 500 ppm, foliar application on Chinese cabbage, 6 days after application, read-out: control efficacy level (control rate)
Text: The compounds of formula (I), (Ia) and/or (Ib) of the present invention or salts thereof are separately dispersed in water and diluted to 500 ppm and 50 ppm. Chinese cabbage plants are planted in plastic pots (diameter: 8 cm, height: 8 cm). Aphids (Myzus persicae) are propagated on the plants and then the number of surviving aphids is counted. The dispersion is applied to the foliage of the potted plants. After the plants are air dried, these are kept in a greenhouse. 6 days after the application, the number of the alive insects is counted on the plants. The control rate is calculated according to the following formula and the control efficacy is evaluated according to the following criteria. [formula] • Ta: the number of alive insects before the foliar application in a treated plot • T: the number of alive insects after the foliar application in a treated plot • Ca: the number of alive insects before the foliar application in an untreated plot • C: the number of alive insects after the foliar application in an untreated plot • A: the control rate is 100% • B: the control rate is 90 to 99% • C: the control rate is 80 to 89% • D: the control rate is 50 to 79%

[10] = adult C. felis, bovine blood with sodium heparin, membrane feeding, 48 hours post-treatment, read-out: EC50 (ingestion activity, percentage mortality, alternative method)
[11] = alternative method according to Example 7, mortality at 48 hours post-treatment, read-out: C. felis membrane feeding (ingestion/blood feeding) activity EC50

## CCS(=N)(=O)c1cc(-c2ccc(C3CC3)cc2)cnc1-c1nc2cc(C(F)(F)C(F)(F)F)cnc2n1C (centres unmarked) [Compound 11]
[1]
  EC50: < 40 nM
[2]
  EC50: < 10000 nM
[3]
  EC50: 10000 to 100000 nM
[4]
  EC50: < 1000 nM
[5]; [10]
  EC50: < 1000 nM
[5]; [11]
  EC50: 816 nM
[6]
  mortality at 500 ppm: 100%
[7]
  mortality at 500 ppm: 100%
[8]
  mortality at 500 ppm: 100%
[9]
  pest or weed control at 500 ppm: 100%

## CCS(=N)(=O)c1cc(-c2ccc(C3(F)CC3)cc2)cnc1-c1nc2cc(C(F)(F)C(F)(F)F)nnc2n1C (centres unmarked) [Compound 14]
[1]
  EC50: < 40 nM
[2]
  EC50: < 10000 nM
[3]
  EC50: 10000 to 100000 nM
[4]
  EC50: < 1000 nM
[5]; [10]
  EC50: < 1000 nM
[5]; [11]
  EC50: 195 nM
[6]
  mortality at 500 ppm: 100%
[7]
  mortality at 500 ppm: 100%
[8]
  mortality at 500 ppm: 100%
[9]
  pest or weed control at 500 ppm: 100%
